# Experimental data from patent US6943148B1, “Methods for delivering therapeutics across blood-barrier and for altering receptor binding affinity” (Nobex Corporation, priority 1998, dated 2005).
# Where a SMILES comes first, the peptide text is derived from it. Where no end group is shown, it is not given here. The star is where a group is joined. X1 = CCCCCCCCCCCCCCCCOCCOCCOC(=O)*
# How the values were obtained:
# [1] = Extraction and detection of enkephalin conjugates from the brain of dosed rats (HPLC); type: in vivo; settings: rat brain removed 10 minutes after dosing; 5 mg/kg cetyl-PEG2-enkephalin; compared with standard peak
# Protocol: The following procedure was used to identify the presence of conjugate from the brain specimen of animals dosed with 5 mg/kg cetyl-PEG2-enkephalin SEQ ID NO: 1.
# After 10 minutes of dosing, the brain of the animal was perfused with 1.5% triflouroacetic acid in PBS solution, and the brain was removed and frosen at −70° C. The brain was homogenized with 1 mL of 1.5% triflouroacetic acid in PBS solution and the homogenate was extracted with acetonitrile/isopropanol solution. The extract was treated with saturated sodium chloride solution and frozen at −20° C. for 2 hours. The organic layer was isolated and centrifuged at 4000 RPM. The supernatant was evaporated and the resulting residue was reconstituted in acetonitrile/isopropanol/water mixture. The reconstituted solution was analyzed by HPLC using a gradient of 10 to 100% isopropanol/water (0.1% trifloiroacetic acid) on a C-18 column. The presence and the concentration of cetyl-PEG2-enkephalin SEQ ID NO: 1 conjugate in the extract were measured by comparing the retention time and the peak area of standard solution under the same analytical condition.
# Sprague-Dawley rats = experiment: Rat paw-hot plate test; type: in vivo; settings: for Mean Analgesia as Compared with Morphine at 3 mg/Kg @ 5 min / Mean Analgesia as Compared with Morphine at 3 mg/Kg @ 30 min: hot plate 52° C., dose (mg/kg): Morphine 3, Enkephalin 20, Cetyl 5, DHA 20, Cholesterol 5, Linolenic 10; for analgesic effect as compared to morphine as a baseline: hot plate, time not stated, enkephalin 20 mg/kg
# Protocol: Adult, male Sprague-Dawley rats weighing 150-175 g were obtained from Charles River Breeding Laboratories (Raleigh, NC) and used for all animal studies. Rats were housed in hanging wire-bottomed cages in a vivarium equipped with a 12:12 light:dark cycle and humidity was maintained between 45-65% with a room temperature of […]. Rats were provided Purina Rodent Chow and tap water ad libitum.
# Met-enkephalin-lys SEQ ID NO: 49 and met-enkephalin-lys SEQ ID NO: 1 derivatives were assessed for analgesic activity by rat paw-hot plate assay. Rats were given an injection of naloxone at 0.5 mg/kg (s.c.) then administered a single administration of cetyl-enkephalin SEQ ID NO: 1 by the tail vein 10 minutes later at a dose of 5.0 mg/kg.
# In a separate study, rats were administered cetyl-enkephalin SEQ ID NO: 1 (5.0 mg/kg, i.v.) or clonidine (0.125 mg/kg, i.v.).
# The latency to rat paw withdrawal from the hot plate was measured by a Hot Plate Analgesia Meter (Harvard Apparatus Ltd., Kent, England). The temperature of the hot plate was set and calibrated at 52° C. and rats were removed from the heat stimulus by 36 seconds after placement. Latency trials were terminated when the animal was either licking a hind paw or initiating a jump from the plate. Baseline measurements were collected 1 hour prior to drug administration and at various times post-injection, dependent upon the study conducted. All hot plate testing was terminated by 1 hour after drug dosing.
# μ-receptor = target: T1, μ-receptor (Rattus norvegicus, UniProt P33535); experiment: % SPECIFIC BINDING; settings: 0.1 µM
# T1 construct: assessed for analgesic activity by rat paw-hot plate assay; from tissue; host or cells: whole living rat (in vivo)
# T1 sequence (P33535 whole entry, looked up): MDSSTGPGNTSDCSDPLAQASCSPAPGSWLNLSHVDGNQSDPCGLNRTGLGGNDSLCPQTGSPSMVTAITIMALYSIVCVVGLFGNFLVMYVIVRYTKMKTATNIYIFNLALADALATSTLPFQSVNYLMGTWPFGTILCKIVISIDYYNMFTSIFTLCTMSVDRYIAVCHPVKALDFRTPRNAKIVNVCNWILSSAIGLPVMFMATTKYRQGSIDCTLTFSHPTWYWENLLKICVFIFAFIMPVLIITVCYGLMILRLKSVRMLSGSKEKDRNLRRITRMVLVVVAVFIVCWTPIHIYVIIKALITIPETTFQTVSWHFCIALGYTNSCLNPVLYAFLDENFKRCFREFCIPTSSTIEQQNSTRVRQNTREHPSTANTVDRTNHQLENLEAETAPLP
# Source text: Table printed on a drawing sheet, FIG.8
# Head of the field: % […] BINDING
# First copying reader's note: The title is printed as the top row inside the table frame and is given as the title, not as a grid row.
Molecule,Mean Analgesia as Compared with Morphine at 3 mg/Kg @ 5 min (Sprague-Dawley rats),Mean Analgesia as Compared with Morphine at 3 mg/Kg @ 30 min (Sprague-Dawley rats),% SPECIFIC BINDING (μ-receptor),also measured
"CCCCCCCCCCCCCCCCOCCOCCOC(=O)NCCCC[C@H](NC(=O)[C@H](CCSC)NC(=O)[C@H](Cc1ccccc1)NC(=O)CNC(=O)CNC(=O)[C@@H](N)Cc1ccc(O)cc1)C(=O)O [Cetyl-PEG-ENK, CETYL MET-ENKEPHALIN-LYS] (H-YGGFMK(X1)-OH)",,,,Presence of conjugate peak in brain extract (HPLC) [1]: actually present in the brain exact
"CN1CC[C@]23c4c5ccc(O)c4O[C@H]2[C@@H](O)C=C[C@H]3[C@H]1C5 [Morphine, reference compound]",100%,100%,,
"CETYL-PEG2-ENK (SEQ ID NO: 1) (YGGFMK; also: cetyl-PEG2 conjugate, site not given here) [CETYL-ENK]",,,100%,
"CETYL-PEG3-ENK (SEQ ID NO: 1) (YGGFMK; also: cetyl-PEG3 conjugate, site not given here) [CETYL-TEG-ENK]",,,100%,
"CHOLESTEROL-PEG3-ENK (SEQ ID NO: 1) (YGGFMK; also: cholesterol-PEG3 conjugate, site not given here) [CHOL-ENK]",,,95%,
DHA MET-ENKEPHALIN-LYS [DHA-PEG-ENK],130%,67%,,analgesic effect as compared to morphine as a baseline (Sprague-Dawley rats): 130%
"DHA-PEG2-ENK (SEQ ID NO: 1) (YGGFMK; also: DHA-PEG2 conjugate, site not given here) [DHA-ENK]",,,63%,
LINOLEIC MET-ENKEPHALIN-LYS [Linolenic-PEG-ENK],77%,73%,,
Met enkephalin-lys (YGGFMK) [reference compound],0%,0%,,Presence of conjugate peak in brain extract (HPLC) [1]: neither the vehicle (FIG. 5C) nor the unconjugated enkephalin SEQ ID NO: 49 (FIG. 5D) showed a corresponding peak; analgesic effect as compared to morphine as a baseline (Sprague-Dawley rats): 0%
PALMITATE-PEG3-ENK (SEQ ID NO: 1) [PALM-ENK],,,76%,
